Measured values as given in patent US20200017467A1, “NOVEL TRIAZOLE DERIVATIVES” (BAYER CROPSCIENCE AKTIENGESELLSCHAFT, priority 2017, published 2020).

Experiments:
[1] = Log P by HPLC on reversed phase columns (EEC directive 79/831 Annex V.A8); assay type: physicochemical; conditions: reversed phase HPLC columns; method [a]: LC-UV, acidic range, 0.1% formic acid in water and acetonitrile; compounds of formula (I)
Experimental: Log P values: Measurement of Log P values was performed according to EEC directive 79/831 Annex V.A8 by HPLC (High Performance Liquid Chromatography) on reversed phase columns with the following methods: • ^[a] Log P value is determined by measurement of LC-UV, in an acidic range, with 0.1% formic acid in water and acetonitrile as eluent (linear gradient from 10% acetonitrile to 95% acetonitrile). • ^[b] Log P value is determined by measurement of LC-UV, in a neutral range, with 0.001 molar ammonium acetate solution in water and acetonitrile as eluent (linear gradient from 10% acetonitrile to 95% acetonitrile). • ^[c] Log P value is determined by measurement of LC-UV, in an acidic range, with 0.1% phosphoric acid and acetonitrile as eluent (linear gradient from 10% acetonitrile to 95% acetonitrile). If more than one Log P value is available within the same method, all the values are given and separated by “+”. Calibration was done with straight-chain alkan2-ones (with 3 to 16 carbon atoms) with known Log P values (measurement of Log P values using retention times with linear interpolation between successive alkanones). Lambda-max-values were determined using UV-spectra from 200 nm to 400 nm and the peak values of the chromatographic signals.

Septoria tritici [2] = experiment: Example F-B: in vivo curative Septoria tritici test (wheat); conditions: Zymoseptoria tritici, 504 h, sprayed 48 hours after inoculation, evaluated 21 days after inoculation, read-out: Efficacy in % Example F-B
Experimental: Example F: In Vivo Septoria tritici Test (Wheat); Comparison of Pyridinyloxy-Pyridyl Compounds According to the Invention Vs. Compounds Known from WO-A 2010/146116 [table] To produce a suitable preparation of active compound, 1 part by weight of active compound or active compound combination is mixed with the stated amounts of solvent and emulsifier, and the concentrate is diluted with water to the desired concentration. Example F-B: In Vivo Curative Septoria tritici Test (Wheat) To test for curative activity, young plants are inoculated with a spore suspension of Septoria tritici and remain for 48 hours in an incubation cabinet at a temperature of approximately 20° C. and a relative atmospheric humidity of approximately 100%. 48 hours after the incubation, the plants are sprayed with the preparation of active compound or active compound combination at the stated rate of application. After application the plants remain for 60 hours at a temperature of approximately 15° C. in a translucent incubation cabinet at a relative atmospheric humidity of approximately 100%. Afterwards, the plants are placed in the greenhouse at a temperature of approximately 15° C. and a relative atmospheric humidity of approximately 80%. The test is evaluated 21 days after the inoculation. 0% means an efficacy which corresponds to that of the untreated control, while an efficacy of 100% means that no disease is observed.

Puccinia recondita = experiment: In vivo preventive test on Puccinia recondita (brown rust on wheat); conditions: 264 h, 500 ppm of active ingredient, preventive spray, evaluated 11 days after inoculation, read-out: efficacy
Experimental: Example A: In Vivo Preventive Test on Puccinia recondita (Brown Rust on Wheat) [table] The active ingredients were made soluble and homogenized in a mixture of dimethyl sulfoxide/acetone//Tween® 80 and then diluted in water to the desired concentration. Young plants of wheat were treated by spraying the active ingredient prepared as described above. Control plants were treated only with an aqueous solution of acetone/dimethyl sulfoxide/Tween® 80. After 24 hours, the plants were contaminated by spraying the leaves with an aqueous suspension of Puccinia recondita spores. The contaminated wheat plants were incubated for 24 hours at 20° C. and at 100% relative humidity and then for 10 days at 20° C. and at 70-80% relative humidity. The test was evaluated 11 days after the inoculation. 0% means an efficacy which corresponds to that of the control plants while an efficacy of 100% means that no disease was observed.

[3] = test system: Blumeria graminis fsp. hordei; experiment: In vivo preventive Blumeria test (barley); conditions: 168 h, 500 ppm of active ingredient, preventive spray, evaluated 7 days after inoculation, read-out: efficacy
Experimental: Example E: In Vivo Preventive Blumeria Test (Barlev) [table] To produce a suitable preparation of active compound, 1 part by weight of active compound or active compound combination was mixed with the stated amounts of solvent and emulsifier, and the concentrate was diluted with water to the desired concentration. To test for preventive activity, young plants were sprayed with the preparation of active compound or active compound combination at the stated rate of application. After the spray coating had been dried, the plants were dusted with spores of Blumeria graminis fsp. hordei. The plants were placed in the greenhouse at a temperature of approximately 18° C. and a relative atmospheric humidity of approximately 80% to promote the development of mildew pustules. The test was evaluated 7 days after the inoculation. 0% means an efficacy which corresponds to that of the untreated control, while an efficacy of 100% means that no disease is observed.

Septoria tritici [4] = experiment: Example F-A: in vivo preventive Septoria tritici test (wheat); conditions: Zymoseptoria tritici, 504 h, evaluated 21 days after inoculation, read-out: Efficacy in % Example F-A
Experimental: Example F: In Vivo Septoria tritici Test (Wheat); Comparison of Pyridinyloxy-Pyridyl Compounds According to the Invention Vs. Compounds Known from WO-A 2010/146116 [table] To produce a suitable preparation of active compound, 1 part by weight of active compound or active compound combination is mixed with the stated amounts of solvent and emulsifier, and the concentrate is diluted with water to the desired concentration. Example F-A: In Vivo Preventive Septoria tritici Test (Wheat) To test for preventive activity, young plants are sprayed with the preparation of active compound or active compound combination at the stated rate of application. After the spray coating has been dried, the plants are sprayed with a spore suspension of Septoria tritici. The plants remain for 48 hours in an incubation cabinet at approximately 20° C. and a relative atmospheric humidity of approximately 100% and afterwards for 60 hours at approximately 15° C. in a translucent incubation cabinet at a relative atmospheric humidity of approximately 100%. The plants are placed in the greenhouse at a temperature of approximately 15° C. and a relative atmospheric humidity of approximately 80%. The test is evaluated 21 days after the inoculation. 0% means an efficacy which corresponds to that of the untreated control, while an efficacy of 100% means that no disease is observed.

| SMILES | chromatographic logP [1] | pest or weed control at 500 ppm (Septoria tritici [2]) | pest or weed control at 500 ppm (Puccinia recondita) | pest or weed control at 500 ppm [3] | pest or weed control at 500 ppm (Septoria tritici [4]) |
| --- | --- | --- | --- | --- | --- |
| CC(O)(Cn1cncn1)c1ccc(Oc2ccc(Br)nc2)nc1C(F)(F)F (stereo not shown) [I-01, 2-[6-[(6-bromo-3-pyridyl)oxy]-2-(trifluoromethyl)-3-pyridyl]-1-(1,2,4-triazol-1-yl)propan-2-ol] | 2.25 | 93% | 90 to 100% | 90 to 100% | 100% |
| CC(O)(Cn1cncn1)c1ccc(Oc2ccc(C(F)(F)F)nc2)nc1C(F)(F)F (stereo not shown) [I-02, 1-(1,2,4-triazol-1-yl)-2-[2-(trifluoromethyl)-6-[[6-(trifluoromethyl)-3-pyridyl]oxy]-3-pyridyl]propan-2-ol] | 2.56 | 100% | 80 to 89% | 90 to 100% | 100% |
| CC(O)(Cn1cncn1)c1cnc(Oc2ccc(C(F)(F)F)nc2)cc1C(F)(F)F (stereo not shown) [I-04] | 2.53 | 100% | 90 to 100% | 90 to 100% | 100% |
| CC(O)(Cn1cncn1)c1ccc(Oc2ccc(Cl)nc2)nc1C(F)(F)F (stereo not shown) [I-05] | 2.21 | 100% | 80 to 89% | 90 to 100% | 100% |
| CC(O)(Cn1cncn1)c1cnc(Oc2ccc(Cl)nc2)cc1C(F)(F)F (stereo not shown) [I-06, 2-[6-[(6-chloro-3-pyridyl)oxy]-4-(trifluoromethyl)-3-pyridyl]-1-(1,2,4-triazol-1-yl)propan-2-ol] | 2.18 | 100% | 90 to 100% | 90 to 100% | 100% |
| CC(O)(Cn1cncn1)c1cnc(Oc2ccc(Br)nc2)cc1C(F)(F)F (stereo not shown) [I-07] | 2.3 | 70% | 80 to 89% | 90 to 100% | 100% |
| OC(Cn1cncn1)c1ccc(Oc2ccc(C(F)(F)F)nc2)nc1C(F)(F)F (stereo not shown) [I-09] | 2.2 | 86% | 90 to 100% | 90 to 100% | 100% |
| OC(Cn1cncn1)c1cnc(Oc2ccc(Br)nc2)cc1C(F)(F)F (stereo not shown) [I-13] | 2.13 | 60% | 90 to 100% | 90 to 100% | 100% |
